According to article PMC10870298, “Rational Design of Antifungal Peptides Based on the γ-Core Motif of a Neosartorya (Aspergillus) fischeri Antifungal Protein to Improve Structural Integrity, Efficacy, and Spectrum” (ACS Omega, 2024):
Like-named read-outs stand apart in the source and are kept apart here. Residues, ends and D or L forms follow the SMILES beside them. *: point of attachment. tBu = CC(C)(C)*

Assays:
A. fumigatus CBS 101355 = format: cell-based, Aspergillus fumigatus
Procedure: (§1) The lyophilized and stored peptides were dissolved in sterile ddH2O (5 mg mL^–1). Then, half of the volume of the peptide stock was tested for antifungal activity and stored at −20 °C until RP-HPLC and ECD analyses. This peptide sample is termed the −20 °C sample. The other half volume of the stock was stored at 4 °C for 7 days, tested for antifungal activity, and stored at −20 °C until RP-HPLC and ECD analyses. This peptide sample is referred to as the 4 °C sample.
(§2) MICs of NFAP γ-core peptide derivatives were determined against C. albicans SC5314 and A. fumigatus CBS 101355. These fungi were maintained on yeast peptone dextrose agar (YPD: 10 g L^–1 yeast extract, 20 g L^–1 peptone, 20 g L^–1D-glucose, 15 g L^–1 agar) and malt extract agar (MEA, Sigma-Aldrich) slants at 4 °C, respectively. Susceptibility tests were performed in low cationic medium (LCM: 5 g L^–1D-glucose, 0.25 g L^–1 yeast extract, 0.125 g L^–1 peptone) according to Tóth et al. (2018)[16] and Tóth et al. (2020)[19] for yeasts and molds, respectively, with slight modifications. Briefly, 100 μL NFAP γ-core peptide (0.39–400 μg mL^–1 in two-fold serial dilutions in LCM) was mixed with 100 μL of 2 × 10^5 mL^–1 mid-log phase C. albicans cells or freshly harvested A. fumigatus conidia in LCM in a flat-bottom 96-well microtiter plate (TC Plate 96 Well, Suspension, F; Sarstedt, Nümbrecht, Germany). A mixture of 100 μL of medium (LCM) without NFAP γ-core peptide derivative and 100 μL of cell or conidium suspension served as the untreated growth control, whereas 200 μL of LCM was used for background calibration. The plates were incubated statically for 48 h (C. albicans) or 72 h (A. fumigatus) at 30 °C. The absorbance (OD620) of each well was measured after shaking for 5 s using a microtiter plate reader (SPECTROstar Nano; BMG Labtech, Ortenberg, Germany). The absorbance of the untreated control was taken as 100% growth for the MIC calculation. MIC was defined as the lowest peptide concentration that reduced fungal growth by […] compared with the untreated control. Susceptibility tests were performed in two technical replicates and were repeated at least two times.

sheep blood = details: cited from earlier work
Source text: (§3) The clinical application of antimicrobial peptides is limited by their potential hemolytic activity, toxicity, immunogenicity, and other side effects.[27] […] Herein, we investigated how cysteine–serine substitution(s) and S-tert-butylation of these peptides influence hemolytic activ ...

[1] = test system: human cell lines (monocytes, colonic epithelial cells, keratinocytes); details: cited from earlier work
Source text: as §3

C. albicans SC5314 [2] = assay: Cell-killing efficacy: growth kinetics of high-density culture and drop viability on YPD agar; format: cell-based, Candida albicans; details: for growth of high-density C. albicans culture: OD600 = 0.2 mid-log cells, LCM, 30 °C, 24 h; for proportion of cells able to multiply (culture drops on YPD agar after treatment): 24 h treatment at 30 °C, then 5 μL drops on YPD agar 24 h at 30 °C
Procedure: Compared with MIC determination, monitoring the growth kinetics of high-density cell cultures in the presence of various peptide concentrations allows for detailed insight into the cell-killing efficacy over time and how cysteine modifications influence it. Therefore, the growth of high-density C. albicans cell culture (OD600 = 0.2) was monitored in the presence of 0.5× MIC, 1× MIC, and 2× MIC of the NFAP γ-core peptides.
The experiment was conducted in a flat-bottom 96-well microtiter plate (TC Plate 96 Well, Suspension, F; Sarstedt, Nümbrecht, Germany): 100 μL of OD600 = 0.2 mid-log phase cells prepared in LCM were mixed with 100 μL of 1× MIC, 2× MIC, or 4× MIC of the peptide diluted in LCM. The plates were incubated statically at 30 °C for 24 h. The absorbance (OD600) of each well was then measured after shaking for 5 s every hour using a microtiter plate reader (BioTek Synergy HTX Multi-Mode Microplate Reader; Agilent Technologies, Santa Clara, CA, USA). Untreated cells (100 μL LCM mixed with 100 μL OD600 = 0.2 mid-log phase cells prepared in LCM) served as growth controls. To examine the viability of the treated C. albicans cells, 5–5 μL cultures from each well were dropped onto the YPD agar plate after the last OD600 measurement and allowed to dry before incubation at 30 °C for 24 h. The plates were photographed (Versa Doc Imaging System 4000 MP; Bio-Rad, Hercules, CA, USA). These experiments were repeated two times, involving three technical replicates.

[3] = test system: plant pathogenic filamentous fungi; details: previous studies; cited from earlier work
Source text: Presumably, these peptides exert an antifungal mechanism through membrane disruption,[17] and the high positive net charge supports this mechanism. Additionally, neither hydrop ...

[4] = Structural integrity (disulfide bridge formation on storage) by RP-HPLC; format: physicochemical
Procedure: The half volume of the dissolved lyophilized peptides was promptly stored at −20 °C for 7 days. The other half volume of these peptides was stored at 4 °C for 7 days (oxidative condition) and then at −20 °C until RP-HPLC and electronic circular dichroism (ECD) analyses were performed. Herein, these peptide samples are referred to as −20 and 4 °C samples, respectively.
as §1
Crude peptides were purified by semipreparative RP-HPLC using a solvent system of (A) 0.1% TFA and (B) 80% acetonitrile, 0.1% TFA, and a linear gradient from 0 to 30% (B) in 60 min. Purification was performed on a Phenomenex Jupiter Proteo 90 Å column (250 × 10 mm) using a Shimadzu HPLC apparatus (Berlin, Germany). Absorbance was detected at 220 nm. Purity was evaluated by analytical RP-HPLC using a Phenomenex Luna 10 μ C18 100 A column and an Agilent 1100 HPLC instrument (Palo Alto, CA, USA).

C. albicans SC5314 [5] = format: cell-based, Candida albicans; details: SC5314, 48 h
Procedure: as §1, §2

[6] = 4 °C sample: 5 mg mL^–1 in sterile ddH2O stored at 4 °C for 7 days (oxidative condition)
[7] = 1 and 2× MIC, OD600 hourly, repeated two times, three technical replicates

Row | Compound | MIC (A. fumigatus CBS 101355; CBS 101355, 72 h) [μg mL^–1] | proportion of cells able to multiply (culture drops on YPD agar after treatment) (C. albicans SC5314 [2]; 2× MIC) | growth of high-density C. albicans culture (C. albicans SC5314 [2]; 2× MIC) | antifungal activity [3] | oxidation / disulfide bridge formation (in words) [4, 6] | MIC (C. albicans SC5314 [5]) [μg mL^–1] | also measured
1 | CC[C@H](C)[C@H](NC(=O)[C@H](CCCCN)NC(=O)[C@H](CS)NC(=O)[C@H](CCCCN)NC(=O)[C@@H](NC(=O)[C@H](CCCCN)NC(=O)[C@@H](NC(=O)[C@H](CCC(=O)O)NC(C)=O)[C@@H](C)CC)[C@@H](C)CC)C(=O)N[C@@H](CCCCN)C(=O)N[C@@H](CCCCN)C(=O)N[C@H](C(=O)N[C@@H](CCCCN)C(=O)N[C@@H](CS)C(=O)N[C@@H](CCCCN)C(N)=O)[C@@H](C)CC [NFAPimpγGZ] (Ac-EIKIKCKIKKIKCK-NH2) | 25 | highly reduce the proportion of cells able to multiply | total or high growth inhibitions | effectively inhibit the growth | fully oxidized to the cyclic form | 12.5 | hemolysis (sheep blood): did not cause hemolysis; toxicity to various human cell lines [1]: impaired the viability of keratinocytes at higher concentrations; growth of high-density C. albicans culture (C. albicans SC5314 [2]; 1× MIC): allowed the multiplication of C. albicans cells within 24 h; share of the peptide with intermolecular disulfide bridges (in words) ([4]; –20 °C sample): one-third; share of the peptide with intramolecular disulfide bridges (in words) ([4]; –20 °C sample): approximately one-third
2 | CC[C@H](C)[C@H](NC(=O)[C@H](CCCCN)NC(=O)[C@H](CSC(C)(C)C)NC(=O)[C@H](CCCCN)NC(=O)[C@@H](NC(=O)[C@H](CCCCN)NC(=O)[C@@H](NC(=O)[C@H](CCC(=O)O)NC(C)=O)[C@@H](C)CC)[C@@H](C)CC)C(=O)N[C@@H](CCCCN)C(=O)N[C@@H](CCCCN)C(=O)N[C@H](C(=O)N[C@@H](CCCCN)C(=O)N[C@@H](CSC(C)(C)C)C(=O)N[C@@H](CCCCN)C(N)=O)[C@@H](C)CC [NFAPimpγGZ^S-tBu] (Ac-EIKIKC(tBu)KIKKIKC(tBu)K-NH2) | 25 | highly reduce the proportion of cells able to multiply | – | – | – | 25 | growth of high-density C. albicans culture (C. albicans SC5314 [2]; 1× MIC): inhibited the growth
3 | CC(=O)N[C@@H](CCC(=O)O)C(=O)N[C@@H](Cc1ccc(O)cc1)C(=O)N[C@@H](CCCCN)C(=O)NCC(=O)N[C@@H](CCCCN)C(=O)N[C@@H](CS)C(=O)N[C@@H](CCCCN)C(=O)N[C@H](C(=O)N[C@@H](CCCCN)C(=O)N[C@@H](CCCCN)C(=O)N[C@@H](CC(N)=O)C(=O)N[C@@H](CCCCN)C(=O)N[C@@H](CS)C(=O)N[C@@H](CCCCN)C(N)=O)[C@@H](C)O [NFAPimpγ] (Ac-EYKGKCKTKKNKCK-NH2) | >200 | highly reduce the proportion of cells able to multiply | – | effectively inhibit the growth | total amount of the peptide was cyclized | – | hemolysis (sheep blood): did not cause hemolysis; toxicity to various human cell lines [1]: not toxic; share of the peptide with intramolecular disulfide bridges (cyclic form) ([4]; –20 °C sample: 5 mg mL^–1 in sterile ddH2O stored at −20 °C for 7 days): approximately 60%
4 | CC(=O)N[C@@H](CCC(=O)O)C(=O)N[C@@H](Cc1ccc(O)cc1)C(=O)N[C@@H](CCCCN)C(=O)NCC(=O)N[C@@H](CCCCN)C(=O)N[C@@H](CSC(C)(C)C)C(=O)N[C@@H](CCCCN)C(=O)N[C@H](C(=O)N[C@@H](CCCCN)C(=O)N[C@@H](CCCCN)C(=O)N[C@@H](CC(N)=O)C(=O)N[C@@H](CCCCN)C(=O)N[C@@H](CSC(C)(C)C)C(=O)N[C@@H](CCCCN)C(N)=O)[C@@H](C)O [NFAPimpγ^S-tBu] (Ac-EYKGKC(tBu)KTKKNKC(tBu)K-NH2) | 25 | – | – | – | – | 50 | MIC (A. fumigatus CBS 101355; storage sample not specified, LCM, 72 h at 30 °C): 25 μg mL^–1; growth of high-density C. albicans culture (C. albicans SC5314 [2]; 0.5× MIC, compared with unmodified NFAPimpγ): extended the time when the C. albicans culture started to multiply intensively; proportion of cells able to multiply (culture drops on YPD agar after treatment) (C. albicans SC5314 [2]; 1–2× MIC): highly reduce the proportion of cells able to multiply
5 | CC(=O)N[C@@H](CCC(=O)O)C(=O)N[C@@H](Cc1ccc(O)cc1)C(=O)N[C@@H](CCCCN)C(=O)NCC(=O)N[C@@H](CCC(=O)O)C(=O)N[C@@H](CS)C(=O)N[C@@H](Cc1ccccc1)C(=O)N[C@H](C(=O)N[C@@H](CCCCN)C(=O)N[C@@H](CC(=O)O)C(=O)N[C@@H](CC(N)=O)C(=O)N[C@H](C(=O)N[C@@H](CS)C(=O)N[C@@H](CCCCN)C(N)=O)[C@@H](C)O)[C@@H](C)O [NFAPγ] (Ac-EYKGECFTKDNTCK-NH2) | > 200 | – | – | did not exhibit antifungal activity | most of this peptide formed intramolecular, whereas a smaller part formed an intermolecular disulfide bond | > 200 | –
6 | Ac-EIKIKCKIKKIKSK-NH2 [NFAPimpγGZ^C13S] | 50 | – | total or high growth inhibitions | – | – | 25 | –
7 | Ac-EIKIKSKIKKIKSK-NH2 [NFAPimpγGZ^C6S,C13S] | 50 | – | could not inhibit the growth | – | – | 25 | –
8 | Ac-EYKGKCKTKKNKSK-NH2 [NFAPimpγ^C13S] | >200 | – | – | – | – | 50 | growth of high-density C. albicans culture (C. albicans SC5314 [2]; [7]): could not fully inhibit the growth; share of the peptide in dimer form [4, 6]: approximately 60%
9 | Ac-EYKGKSKTKKNKSK-NH2 [NFAPimpγ^C6S,C13S] | >200 | – | – | – | – | 50 | growth of high-density C. albicans culture (C. albicans SC5314 [2]; [7]): could not fully inhibit the growth
